Assays:
[1] = system: CDK8 (phosphorylation of STAT1 at serine 727 in A549 cells); test: Cell based Phospho-STAT1 assay (IFNγ-stimulated A549 cells, AlphaLISA); conditions: Homo sapiens, A549, A549 cells, phospho-STAT1 after IFNγ stimulation
Summary of the method: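 A549 cells given serial compound dilutions for 1 h at 37 °C, then stimulated with IFNγ at 10 ng/mL final for 30 min. Lysate STAT1 Ser727 phosphorylation measured by AlphaLISA; % inhibition vs stimulated/unstimulated DMSO controls, IC50 by nonlinear regression.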

[2] = system: CDK8 (TCF/LEF luciferase reporter in HCT116 cells); test: Cell based TCF/LEF reporter assay (HCT116+TCF/LEF luciferase); conditions: Homo sapiens, HCT-116, 24 h
Summary of the method: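 HCT116 cells stably carrying a TCF/LEF-luciferase reporter (endogenous mutant β-catenin), seeded overnight, then exposed to serial compound dilutions for 24 h at 37 °C. Luminescence normalized to CellTiter-Fluor viability signal. % inhibition relative to DMSO and 10 uM CCT251545 controls, with IC50 from nonlinear regression.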

IC50 [1] [µM] | IC50 [2] [µM] | SMILES
0.0001 to 0.1 | 0.0001 to 0.1 | N#CC1CC=C(c2cccn3ncc(-c4ccc(OCCCN5CCCCC5)cc4)c23)CC1 (stereo not drawn) [Compound P-0180, 4-(3-(4-(3-(piperidin-1-yl)propoxy)phenyl)pyrazolo[1,5-a]pyridin-4-yl)cyclohex-3-ene-1-carbonitrile]
0.0001 to 0.1 | 0.0001 to 0.1 | N#CC1CC=C(c2cccn3ncc(-c4ccc(OCCN5CCCCC5)cc4)c23)CC1 (stereo not drawn) [Compound P-0181, 4-(3-(4-(2-(piperidin-1-yl)ethoxy)phenyl)pyrazolo[1,5-a]pyridin-4-yl)cyclohex-3-ene-1-carbonitrile]
0.0001 to 0.1 | 0.0001 to 0.1 | N#CC1CC=C(c2cccn3ncc(-c4ccc(OCC5CCCCO5)cc4)c23)CC1 (stereo not drawn) [Compound P-0182, 4-(3-(4-((tetrahydro-2H-pyran-2-yl)methoxy)phenyl)pyrazolo[1,5-a]pyridin-4-yl)cyclohex-3-ene-1-carbonitrile]
0.0001 to 0.1 | 0.0001 to 0.1 | N#CC1CC=C(c2cccn3ncc(-c4ccc(OCCN5CCOCC5)cc4)c23)CC1 (stereo not drawn) [Compound P-0183, 4-(3-(4-(2-morpholino-ethoxy)phenyl)pyrazolo[1,5-a]pyridin-4-yl)cyclohex-3-ene-1-carbonitrile]
0.0001 to 0.1 | 0.1 to 1 | Cn1cc(C#Cc2cnc3[nH]ccc3c2C2=CCC(C#N)CC2)cn1 (stereo not drawn) [Compound P-0184, 4-[5-[2-(1-methylpyrazol-4-yl)ethynyl]-H-pyrrolo[2,3-b]pyridin-4-yl]cyclohex-3-ene-1-carbonitrile]
0.1 to 1 | 1 to 10 | Cn1cc(-c2ccc(-c3cnn4cccc(C5=CCN(C(N)=O)CC5)c34)cc2)cn1 [Compound P-0185, 4-[3-[4-(1-methylpyrazol-4-yl)phenyl]pyrazolo[1,5-a]pyridin-4-yl]-3,6-dihydro-2H-pyridine-1-carboxamide]
0.0001 to 0.1 | 0.0001 to 0.1 | Cc1ccc2cc(-c3cnn4ccnc(C5=CCC(C#N)CC5)c34)ccc2n1 (stereo not drawn) [Compound P-0186, 4-(3-(2-methylquinolin-6-yl)pyrazolo[1,5-a]pyrazin-4-yl)cyclohex-3-ene-1-carbonitrile]
0.0001 to 0.1 | 0.0001 to 0.1 | Cc1ccc2cc(-c3cnn4ccnc(C5CCC(C#N)CC5)c34)ccc2n1 (stereo not drawn) [Compound P-0187, 4-(3-(2-methylquinolin-6-yl)pyrazolo[1,5-a]pyrazin-4-yl)cyclohexane-1-carbonitrile]
0.0001 to 0.1 | 0.0001 to 0.1 | N#CC1CC=C(c2cccn3ncc(-c4ccc(Cl)cc4)c23)CC1 (stereo not drawn) [Compound P-0188, 4-(3-(4-chlorophenyl)pyrazolo[1,5-a]pyridin-4-yl)cyclohex-3-ene-1-carbonitrile]
0.0001 to 0.1 | 0.0001 to 0.1 | N#CC1CCN(c2c(-c3ccc4c(c3)NC(=O)C4)cnc3[nH]ccc23)CC1 [Compound P-0189, 1-(5-(2-oxoindolin-6-yl)-1H-pyrrolo[2,3-b]pyridin-4-yl)piperidine-4-carbonitrile]
0.0001 to 0.1 | 0.0001 to 0.1 | COc1ccc2cc(-c3cnc4[nH]ccc4c3C3=CCC(C#N)CC3)ccc2n1 (stereo not drawn) [Compound P-0190, 4-(5-(2-methoxyquinolin-6-yl)-1H-pyrrolo[2,3-b]pyridin-4-yl)cyclohex-3-ene-1-carbonitrile]
0.0001 to 0.1 | 0.1 to 1 | CC(C)(O)C#Cc1cccn2ncc(-c3ccc4cc(C(N)=O)ccc4c3)c12 [Compound P-0191, 6-(4-(3-hydroxy-3-methylbut-1-yn-1-yl)pyrazolo[1,5-a]pyridin-3-yl)-2-naphthamide]
0.1 to 1 | 1 to 10 | N#CC1CCC(c2cccn3ncc(-c4ccc5cc(C(=O)O)ccc5c4)c23)CC1 (stereo not drawn) [Compound P-0193, 6-(4-(4-cyanocyclohexyl)pyrazolo[1,5-a]pyridin-3-yl)-2-naphthoic acid]
0.0001 to 0.1 | 0.0001 to 0.1 | Cc1ccc2cc(-c3cnn4cccc(C5CCC(C#N)CC5)c34)ccc2n1 (stereo not drawn) [Compound P-0194, 4-(3-(2-methylquinolin-6-yl)pyrazolo[1,5-a]pyridin-4-yl)cyclohexane-1-carbonitrile]
0.0001 to 0.1 | 0.0001 to 0.1 | COc1ccc2cc(-c3cnn4cccc(C5CCC(C#N)CC5)c34)ccc2n1 (stereo not drawn) [Compound P-0195, 4-(3-(2-methoxyquinolin-6-yl)pyrazolo[1,5-a]pyridin-4-yl)cyclohexane-1-carbonitrile]
0.0001 to 0.1 | 0.1 to 1 | NC(=O)C1CC=C(c2cccn3ncc(-c4ccc(-n5ccnn5)cc4)c23)CC1 (stereo not drawn) [Compound P-0196, 4-(3-(4-(1H-1,2,3-triazol-1-yl)phenyl)pyrazolo[1,5-a]pyridin-4-yl)cyclohex-3-ene-1-carboxamide]
0.0001 to 0.1 | 0.1 to 1 | NC(=O)C1CC=C(c2cccn3ncc(-c4ccc(-n5cccn5)cc4)c23)CC1 (stereo not drawn) [Compound P-0197, 4-(3-(4-(1H-pyrazol-1-yl)phenyl)pyrazolo[1,5-a]pyridin-4-yl)cyclohex-3-ene-1-carboxamide]

IC50 [1] [µM] | IC50 [2] [µM] | SMILES
0.1 to 1 | 0.1 to 1 | COc1ccc2cc(-c3cnn4ccnc(C#CC(C)(C)O)c34)ccc2n1 [Compound P-0198, 4-(3-(2-methoxyquinolin-6-yl)pyrazolo[1,5-a]pyrazin-4-yl)-2-methylbut-3-yn-2-ol]
0.0001 to 0.1 | 0.0001 to 0.1 | CS(=O)(=O)Nc1ccc2cc(-c3cnn4cccc(C5=CCC(C#N)CC5)c34)ccc2c1 (stereo not drawn) [Compound P-0199, N-(6-(4-(4-cyanocyclohex-1-en-1-yl)pyrazolo[1,5-a]pyridin-3-yl)naphthalen-2-yl)methanesulfonamide]
1 to 10 | 0.1 to 1 | N#CC1CCN(c2c(-c3ccc4cc(C(=O)O)ccc4c3)cnc3[nH]ccc23)CC1 [Compound P-0200, 6-(4-(4-cyanopiperidin-1-yl)-1H-pyrrolo[2,3-b]pyridin-5-yl)-2-naphthoic acid]
0.1 to 1 | 0.0001 to 0.1 | N#CC1CC=C(c2c(-c3ccc(-n4ccnn4)cc3)cnc3[nH]ccc23)CC1 (stereo not drawn) [Compound P-0201, 4-(5-(4-(1H-1,2,3-triazol-1-yl)phenyl)-1H-pyrrolo[2,3-b]pyridin-4-yl)cyclohex-3-ene-1-carbonitrile]
0.0001 to 0.1 | 0.0001 to 0.1 | Cc1ccc2cc(-c3cnc4[nH]ccc4c3C3=CCC(C#N)CC3)ccc2n1 (stereo not drawn) [Compound P-0202, 4-(5-(2-methylquinolin-6-yl)-1H-pyrrolo[2,3-b]pyridin-4-yl)cyclohex-3-ene-1-carbonitrile]
0.0001 to 0.1 | 0.0001 to 0.1 | N#CC1CC=C(c2c(-c3ccc(-n4cccn4)cc3)cnc3[nH]ccc23)CC1 (stereo not drawn) [Compound P-0203, 4-(5-(4-(1H-pyrazol-1-yl)phenyl)-1H-pyrrolo[2,3-b]pyridin-4-yl)cyclohex-3-ene-1-carbonitrile]
0.0001 to 0.1 | 0.0001 to 0.1 | CC(C)(O)Cn1cc(-c2ccc(-c3cnc4[nH]cc(Cl)c4c3N3CCC(C#N)CC3)cc2)cn1 [Compound P-0204, 1-(3-chloro-5-(4-(1-(2-hydroxy-2-methylpropyl)-1H-pyrazol-4-yl)phenyl)-1H-pyrrolo[2,3-b]pyridin-4-yl)piperidine-4-carbonitrile]
0.1 to 1 | 0.0001 to 0.1 | N#CC1CC=C(c2c(-c3ccc4c(c3)OCC(=O)N4)cnc3[nH]ccc23)CC1 (stereo not drawn) [Compound P-0205, 4-(5-(3-oxo-3,4-dihydro-2H-benzo[b][1,4]oxazin-7-yl)-1H-pyrrolo[2,3-b]pyridin-4-yl)cyclohex-3-ene-1-carbonitrile]
0.0001 to 0.1 | 0.0001 to 0.1 | N#CC1CC=C(c2c(-c3ccc4[nH]c(=O)[nH]c4c3)cnc3[nH]ccc23)CC1 (stereo not drawn) [Compound P-0206, 4-(5-(2-oxo-2,3-dihydro-1H-benzo[d]imidazol-5-yl)-1H-pyrrolo[2,3-b]pyridin-4-yl)cyclohex-3-ene-1-carbonitrile]
1 to 10 | 0.1 to 1 | N#CC1CC=C(c2c(-c3ccc4c(c3)C(=O)NC4)cnc3[nH]ccc23)CC1 (stereo not drawn) [Compound P-0207, 4-(5-(3-oxoisoindolin-5-yl)-1H-pyrrolo[2,3-b]pyridin-4-yl)cyclohex-3-ene-1-carbonitrile]
0.0001 to 0.1 | 0.0001 to 0.1 | N#CC1CC=C(c2c(-c3ccc4c(c3)NC(=O)C4)cnc3[nH]ccc23)CC1 (stereo not drawn) [Compound P-0208, 4-(5-(2-oxoindolin-6-yl)-1H-pyrrolo[2,3-b]pyridin-4-yl)cyclohex-3-ene-1-carbonitrile]
0.0001 to 0.1 | 0.0001 to 0.1 | Cc1ccc2cc(-c3cnc4[nH]ccc4c3N3CCC(C#N)CC3)ccc2n1 [Compound P-0209, 1-(5-(2-methylquinolin-6-yl)-1H-pyrrolo[2,3-b]pyridin-4-yl)piperidine-4-carbonitrile]
0.0001 to 0.1 | 0.1 to 1 | N#CC1CCC(c2nccn3ncc(-c4ccc(-n5ccnn5)cc4)c23)CC1 (stereo not drawn) [Compound P-0211, 4-(3-(4-(1H-1,2,3-triazol-1-yl)phenyl)pyrazolo[1,5-a]pyrazin-4-yl)cyclohexane-1-carbonitrile]
1 to 10 | 1 to 10 | O=C(O)C1CC=C(c2cccn3ncc(-c4ccc(-n5cccn5)cc4)c23)CC1 (stereo not drawn) [Compound P-0213, 4-(3-(4-(1H-pyrazol-1-yl)phenyl)pyrazolo[1,5-a]pyridin-4-yl)cyclohex-3-ene-1-carboxylic acid]
0.0001 to 0.1 | 0.0001 to 0.1 | Cc1nc2ccc(-c3cnn4cccc(C5=CCC(C#N)CC5)c34)cc2s1 (stereo not drawn) [Compound P-0214, 4-(3-(2-methylbenzo[d]thiazol-6-yl)pyrazolo[1,5-a]pyridin-4-yl)cyclohex-3-ene-1-carbonitrile]
0.1 to 1 | 0.1 to 1 | Cc1nc2ccc(-c3cnn4cccc(C#CC(C)(C)O)c34)cc2s1 [Compound P-0215, 2-methyl-4-(3-(2-methylbenzo[d]thiazol-6-yl)pyrazolo[1,5-a]pyridin-4-yl)but-3-yn-2-ol]
